According to patent US9713651B2, “Compositions, methods, and systems for the synthesis and use of imaging agents” (Lantheus Medical Imaging, Inc., priority 2012, dated 2017):

Assay: Tissue distribution of 18F imaging agents in rats
Format: in vivo, Male Sprague Dawley rats
Details: rat, iv tail vein ~15 μCi, ± SEM; for Blood, imaging agent distribution at 15 min / Brain, imaging agent distribution at 15 min / Femur, imaging agent distribution at 15 min / Heart, imaging agent distribution at 15 min / Kidney, imaging agent distribution at 15 min / Liver, imaging agent distribution at 15 min / Lung, imaging agent distribution at 15 min / Muscle, imaging agent distribution at 15 min / Spleen, imaging agent distribution at 15 min / Pancreas, imaging agent distribution at 15 min: 15 min post injection; for Blood, imaging agent distribution at 60 min / Brain, imaging agent distribution at 60 min / Femur, imaging agent distribution at 60 min / Heart, imaging agent distribution at 60 min / Kidney, imaging agent distribution at 60 min / Liver, imaging agent distribution at 60 min / Lung, imaging agent distribution at 60 min / Muscle, imaging agent distribution at 60 min / Pancreas, imaging agent distribution at 60 min / Spleen, imaging agent distribution at 60 min: 60 min post injection
Description: Anesthetized (sodium pentobarbital at 50 mg/kg, ip or isoflurane gas inhalation) Male Sprague Dawley rats (250-350 g) received an iv injection of the imaging agent (˜15 μCi) via the tail vein. At 15 or 60 min post injection, the animals were euthanized and the required tissue samples harvested. All samples were then weighed and counted for radioactivity (Wallac Wizard 1480 or Packard Cobra II Autogamma); regional tissue uptake of the imaging agent was thus expressed as a percentage of the total injected dose per gram of tissue (% ID/g).
The generic structure depicted below highlights specific structural features evaluated during distribution experiments.

Compound	Blood, imaging agent distribution at 15 min	Brain, imaging agent distribution at 15 min	Femur, imaging agent distribution at 15 min	Heart, imaging agent distribution at 15 min	Kidney, imaging agent distribution at 15 min	Liver, imaging agent distribution at 15 min	Lung, imaging agent distribution at 15 min	Muscle, imaging agent distribution at 15 min	Spleen, imaging agent distribution at 15 min	Pancreas, imaging agent distribution at 15 min	Blood, imaging agent distribution at 60 min	Brain, imaging agent distribution at 60 min	Femur, imaging agent distribution at 60 min	Heart, imaging agent distribution at 60 min	Kidney, imaging agent distribution at 60 min	Liver, imaging agent distribution at 60 min	Lung, imaging agent distribution at 60 min	Muscle, imaging agent distribution at 60 min	Pancreas, imaging agent distribution at 60 min	Spleen, imaging agent distribution at 60 min
CC(C)(C)n1ncc(OCc2ccc([Si](F)(C(C)(C)C)C(C)(C)C)cc2)c(Cl)c1=O [Example 67N]	0.22 ± 0.04 % ID/g	0.03 ± 0.00 % ID/g	0.14 ± 0.02 % ID/g	0.65 ± 0.09 % ID/g	0.51 ± 0.09 % ID/g	4.91 ± 0.49 % ID/g	1.31 ± 0.24 % ID/g	0.06 ± 0.00 % ID/g	3.47 ± 0.80 % ID/g	–	–	–	–	–	–	–	–	–	–	–
[2H]C([2H])(OCCF)c1ccc(COc2cnn(C(C)(C)C)c(=O)c2Cl)cc1 [Example 67E]	0.17 ± 0.02 % ID/g	0.97 ± 0.11 % ID/g	0.50 ± 0.04 % ID/g	4.80 ± 0.27 % ID/g	2.61 ± 0.18 % ID/g	0.66 ± 0.09 % ID/g	0.39 ± 0.05 % ID/g	0.77 ± 0.09 % ID/g	0.36 ± 0.08 % ID/g	0.82 ± 0.07 % ID/g	0.26 ± 0.03 % ID/g	0.62 ± 0.04 % ID/g	0.69 ± 0.05 % ID/g	3.61 ± 0.45 % ID/g	0.98 ± 0.04 % ID/g	0.53 ± 0.06 % ID/g	0.34 ± 0.03 % ID/g	0.69 ± 0.17 % ID/g	0.43 ± 0.05 % ID/g	0.25 ± 0.01 % ID/g
CC(C)(C)n1ncc(OCc2ccc(OCCCF)c(Cl)c2)c(Cl)c1=O [Example 67C]	0.26 ± 0.05 % ID/g	0.42 ± 0.01 % ID/g	0.33 ± 0.01 % ID/g	4.21 ± 0.29 % ID/g	3.04 ± 0.21 % ID/g	2.67 ± 0.17 % ID/g	0.50 ± 0.08 % ID/g	0.24 ± 0.04 % ID/g	0.37 ± 0.05 % ID/g	–	0.20 ± 0.07 % ID/g	0.44 ± 0.03 % ID/g	0.84 ± 0.07 % ID/g	4.54 ± 0.29 % ID/g	1.77 ± 0.25 % ID/g	0.65 ± 0.12 % ID/g	0.61 ± 0.32 % ID/g	0.26 ± 0.02 % ID/g	–	0.18 ± 0.02 % ID/g
CC(OCCF)c1ccc(COc2cnn(C(C)(C)C)c(=O)c2Cl)cc1 (stereo not shown) [Example 67G]	0.50 ± 0.18 % ID/g	0.59 ± 0.03 % ID/g	0.40 ± 0.05 % ID/g	2.19 ± 0.36 % ID/g	0.88 ± 0.05 % ID/g	0.33 ± 0.10 % ID/g	0.46 ± 0.12 % ID/g	0.35 ± 0.04 % ID/g	0.32 ± 0.11 % ID/g	0.41 ± 0.03 % ID/g	0.47 ± 0.04 % ID/g	0.39 ± 0.05 % ID/g	0.58 ± 0.06 % ID/g	0.98 ± 0.16 % ID/g	0.44 ± 0.02 % ID/g	0.32 ± 0.03 % ID/g	0.38 ± 0.03 % ID/g	0.33 ± 0.01 % ID/g	0.26 ± 0.01 % ID/g	0.28 ± 0.03 % ID/g
CC(C)(C)n1ncc(OCc2ccc(OCCF)cc2)c(Cl)c1=O [Example 67D]	1.11 % ID/g	0.74 % ID/g	0.21 % ID/g	3.63 % ID/g	3.81 % ID/g	3.61 % ID/g	1.00 % ID/g	0.14 % ID/g	0.37 % ID/g	–	1.00 % ID/g	0.69 % ID/g	0.26 % ID/g	4.66 % ID/g	1.71 % ID/g	1.49 % ID/g	0.96 % ID/g	0.18 % ID/g	–	0.23 % ID/g
CC(C)(C)n1ncc(CCc2ccc(COCCF)cc2)c(Cl)c1=O [Example 67M]	0.53 ± 0.13 % ID/g	0.55 ± 0.31 % ID/g	0.52 ± 0.19 % ID/g	2.54 ± 0.20 % ID/g	0.79 ± 0.07 % ID/g	0.96 ± 0.10 % ID/g	0.97 ± 0.13 % ID/g	0.24 ± 0.04 % ID/g	0.35 ± 0.05 % ID/g	–	0.73 ± 0.16 % ID/g	2.33 ± 0.12 % ID/g	0.43 ± 0.03 % ID/g	0.55 ± 0.06 % ID/g	0.43 ± 0.04 % ID/g	0.43 ± 0.04 % ID/g	1.03 ± 0.22 % ID/g	0.31 ± 0.04 % ID/g	–	0.26 ± 0.03 % ID/g
CC(C)(C)n1ncc(OCc2cccc(OCCF)c2)c(Cl)c1=O [Example 67F]	0.32 ± 0.05 % ID/g	0.50 ± 0.04 % ID/g	0.44 ± 0.04 % ID/g	1.92 ± 0.15 % ID/g	1.04 ± 0.10 % ID/g	0.40 ± 0.04 % ID/g	0.41 ± 0.03 % ID/g	0.60 ± 0.06 % ID/g	0.28 ± 0.01 % ID/g	0.52 ± 0.04 % ID/g	0.48 ± 0.01 % ID/g	0.38 ± 0.01 % ID/g	0.57 ± 0.04 % ID/g	0.87 ± 0.02 % ID/g	0.60 ± 0.03 % ID/g	0.39 ± 0.04 % ID/g	0.44 ± 0.03 % ID/g	0.43 ± 0.07 % ID/g	0.48 ± 0.01 % ID/g	0.31 ± 0.01 % ID/g
CC(C)n1ncc(OCc2ccc(COCCF)cc2)c(Cl)c1=O [Example 67H]	0.45 ± 0.02 % ID/g	0.43 ± 0.05 % ID/g	0.36 ± 0.04 % ID/g	1.14 ± 0.09 % ID/g	0.78 ± 0.01 % ID/g	0.46 ± 0.01 % ID/g	0.41 ± 0.01 % ID/g	0.38 ± 0.02 % ID/g	0.34 ± 0.03 % ID/g	0.44 ± 0.03 % ID/g	0.55 ± 0.02 % ID/g	0.43 ± 0.02 % ID/g	0.71 ± 0.06 % ID/g	0.55 ± 0.03 % ID/g	0.49 ± 0.03 % ID/g	0.40 ± 0.02 % ID/g	0.42 ± 0.01 % ID/g	0.31 ± 0.02 % ID/g	0.32 ± 0.02 % ID/g	0.35 ± 0.02 % ID/g
CC(C)(C)n1ncc(OCc2ccc(-c3cnc(F)nc3)cc2)c(Cl)c1=O [Example 67L]	0.14 ± 0.01 % ID/g	0.30 ± 0.05 % ID/g	0.31 ± 0.01 % ID/g	1.19 ± 0.18 % ID/g	0.65 ± 0.07 % ID/g	1.71 ± 0.36 % ID/g	0.29 ± 0.03 % ID/g	0.27 ± 0.02 % ID/g	0.18 ± 0.01 % ID/g	0.36 ± 0.06 % ID/g	0.10 ± 0.02 % ID/g	0.22 ± 0.03 % ID/g	0.78 ± 0.15 % ID/g	0.62 ± 0.12 % ID/g	0.40 ± 0.08 % ID/g	2.06 ± 0.27 % ID/g	0.21 ± 0.02 % ID/g	0.20 ± 0.06 % ID/g	0.33 ± 0.08 % ID/g	0.11 ± 0.02 % ID/g
